How the values were obtained:
TSHR [1] = target: T1, TSHR (Homo sapiens, UniProt P16473); experiment: TsAb (Graves' disease sera)-stimulated cAMP accumulation in HEK-EM 293 cells expressing TSHR; format: cell-based; parameters: expressed in transfected cells
Description: (§1) Transiently transfected cells were cultured for 48 hours before the cAMP assay. HEK-EM 293 cells stably expressing TSHR, LHCGR or FSHR were seeded into 24-well plates with a density of 2.2×10^5 cells/well 24 hours before the cAMP assay. After removal of growth medium, cells were incubated for 1 hour in HBSS (Cellgro) with 10 mM HEPES (Cellgro) containing 1 mM 3-isobutyl-1-methylxanthine (IBMX) (Sigma) and the ligand of interest in a humidified 5% CO2 incubator at 37° C. The intracellular cAMP content was determined with the cAMP Biotrak Enzymeimmunoassay (EIA) System (GE Healthcare). Data were analyzed using GraphPad Prism 4 for Windows. Receptor expression was measured as described in Jaschke et al., J Biol Chem 281:9841-9844.
To assess the therapeutic potential of compound 52 in patients with Graves' disease, its ability to inhibit TSHR activation by TsAbs was tested. First, four patient sera (GD 5, 19, 29, 30) were used at a dilution of 1:50 to test the effect of compound 52 on TsAb-stimulated cAMP accumulation in HEK-EM 293 cells expressing TSHR. All four sera increased cAMP accumulation, but to different extents (FIG. 6). To assess inhibition, cAMP accumulation was measured in response to TsAbs in the presence of 30 μM compound 52. Indeed, compound 52 reduced TsAb-mediated responses of the different sera (set at 100% for each patient's serum) by 28% to 79% (FIG. 6).

human TSH receptor = target: T2, human TSH receptor (Homo sapiens, UniProt P16473); experiment: intracellular cAMP accumulation, agonism at TSHR stably expressed in HEK EM 293 cells; format: cell-based
T2 construct: expressed in transfected cells
T2 sequence (P16473 21-764): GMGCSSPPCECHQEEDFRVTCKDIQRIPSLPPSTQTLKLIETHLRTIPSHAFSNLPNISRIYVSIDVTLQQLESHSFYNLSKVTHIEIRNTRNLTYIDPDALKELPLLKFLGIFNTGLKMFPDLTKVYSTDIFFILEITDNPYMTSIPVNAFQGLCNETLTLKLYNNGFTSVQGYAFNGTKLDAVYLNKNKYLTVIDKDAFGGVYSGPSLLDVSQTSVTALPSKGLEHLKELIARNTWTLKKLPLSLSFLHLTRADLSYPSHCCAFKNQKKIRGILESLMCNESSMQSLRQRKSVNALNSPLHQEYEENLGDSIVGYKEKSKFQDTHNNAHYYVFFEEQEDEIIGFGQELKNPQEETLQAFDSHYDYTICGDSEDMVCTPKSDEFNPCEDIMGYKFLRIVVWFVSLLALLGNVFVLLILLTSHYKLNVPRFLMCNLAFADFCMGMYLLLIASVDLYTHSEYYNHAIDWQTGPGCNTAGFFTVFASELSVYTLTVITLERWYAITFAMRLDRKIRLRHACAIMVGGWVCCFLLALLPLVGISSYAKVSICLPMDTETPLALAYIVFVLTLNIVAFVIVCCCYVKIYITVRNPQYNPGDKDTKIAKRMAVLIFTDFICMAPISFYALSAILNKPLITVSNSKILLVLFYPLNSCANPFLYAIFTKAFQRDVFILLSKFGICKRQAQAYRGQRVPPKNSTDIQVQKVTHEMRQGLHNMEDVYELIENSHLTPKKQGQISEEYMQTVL
Description: With reference to Table 1, exemplary disclosed compounds were evaluated against human TSH receptor and human LHCG receptor that were stably expressed in HEK 293 EM cells as previously described by Libert et al. (Biochem. Biophys. Res. Commun. 1989, 165, 1250-1255); and by Schulz et al. (Mol. Endocrinol. 1999, 13, 181-190). Cell surface expression of TSH receptor and LHCG receptor were determined via FACS analysis (Kleinau, G.; Jäschke, H.; Neumann, S.; Lättig, S.; Paschke, R.; Krause, G. J. Biol. Chem. 2004, 279, 51590-51600). Agonism of compounds 3-20 were determined via measurement of intracellular cyclic AMP accumulation. […] For example, […] certain compounds disclosed herein exerted no discernible effect on the FSH receptor.
Cells were cultured for 48 h in 24-well plates before incubation for 1 h in serum-free DMEM containing 1 mM 3-isobutyl-1-methylxanthine (IBMX) (SIGMA) and bovine TSH (1.8 μM) (SIGMA) or human LH (1000 ng/ml) (Dr. A. Parlow, NIDDK National Hormone and Pituitary Program) or compounds 3-19 (0-100 μM) in a humidified 5% CO2 incubator. Following aspiration of the medium after incubation with compounds, cells were lysed using lysis buffer 1 of the cAMP Biotrak Enzymeimmunoassay (EIA) System (Amersham Biosciences). The cAMP content of the cell lysate was determined using the manufacturer's protocol. The efficacy of receptor activation by small molecule modulators is expressed as % of maximum response of LHCG receptor or TSH receptor to LH or TSH, respectively. The potency (EC50) was obtained from dose response curves (0-100 μM compound) by data analysis with GraphPad Prism 4 for Windows. With reference to FIG. 1, intracellular cAMP production was determined in response to 100 μM of each compound and is expressed as % of maximum response of TSHR/LHCGR to TSH (100 mU/ml)/LH (1000 ng/ml). The data are presented as mean±SEM of two independent experiments, each performed in duplicate.
as §1

LHCG receptor = LHCG receptor (Mus musculus, UniProt P30730); details: ovulation induction model; cited from earlier work
Chain of LHCG receptor (P30730 27-700): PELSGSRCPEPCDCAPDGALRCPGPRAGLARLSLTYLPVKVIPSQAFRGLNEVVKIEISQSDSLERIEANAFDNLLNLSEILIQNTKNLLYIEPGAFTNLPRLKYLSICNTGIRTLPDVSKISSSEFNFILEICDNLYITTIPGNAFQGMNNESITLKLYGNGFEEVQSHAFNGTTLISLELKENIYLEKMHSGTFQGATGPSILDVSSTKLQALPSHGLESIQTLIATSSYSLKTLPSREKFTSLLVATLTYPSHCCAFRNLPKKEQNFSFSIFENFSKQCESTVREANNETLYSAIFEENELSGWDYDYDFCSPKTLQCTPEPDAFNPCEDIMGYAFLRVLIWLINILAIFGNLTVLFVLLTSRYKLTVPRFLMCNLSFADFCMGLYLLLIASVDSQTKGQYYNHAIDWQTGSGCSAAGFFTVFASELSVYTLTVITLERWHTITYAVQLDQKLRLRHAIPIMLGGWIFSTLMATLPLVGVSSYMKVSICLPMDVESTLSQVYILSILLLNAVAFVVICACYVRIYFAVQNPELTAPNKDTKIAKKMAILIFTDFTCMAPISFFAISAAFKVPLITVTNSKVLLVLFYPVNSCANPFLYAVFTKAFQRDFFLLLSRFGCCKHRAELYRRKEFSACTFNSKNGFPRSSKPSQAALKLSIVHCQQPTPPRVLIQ

TSHR mutant M9 = experiment: cAMP production in HEK-EM 293 cells transiently expressing TSHR mutant M9; format: cell-based, human
Description: HEK-EM 293 cells were grown in Dulbecco's modified Eagle's Medium (DMEM) supplemented with 10% fetal bovine serum, 100 units/ml penicillin and 10 μg/ml streptomycin (Life Technologies Inc.) at 37° C. in a humidified 5% CO2 incubator. Cells were transiently transfected with wild type TSHR and mutant receptors in 24-well plates (7.5×10^4 cells per well) with 0.4 μg DNA/well using FuGENE™ 6 reagent (Roche) according to the manufacturer's protocol.
The M9 mutant is described in Jaschke et al., J Biol Chem 281:9841-9844. The Y7.42A mutant was introduced into hTSHR-pcDNA3.1 via the QuickChange XL Site-Directed Mutagenesis kit (Stratagene). The construct was verified by sequencing (MWG Biotech).
as §1, with “After removal of growth medium, cells were incubated for 1 hour in HBSS (Cellgro) with 10 mM HEPES (Cellgro) containing 1 mM 3-isobutyl-1-methylxanthine (IBMX) (Sigma) and the ligand of interest in a humidified 5% CO2 incubator at 37° C.” left out

human LHCG receptor = target: T3, human LHCG receptor (Homo sapiens, UniProt P22888); experiment: intracellular cAMP accumulation, agonism at LHCGR stably expressed in HEK EM 293 cells; format: cell-based
T3 construct: expressed in transfected cells
T3 sequence (P22888 27-699): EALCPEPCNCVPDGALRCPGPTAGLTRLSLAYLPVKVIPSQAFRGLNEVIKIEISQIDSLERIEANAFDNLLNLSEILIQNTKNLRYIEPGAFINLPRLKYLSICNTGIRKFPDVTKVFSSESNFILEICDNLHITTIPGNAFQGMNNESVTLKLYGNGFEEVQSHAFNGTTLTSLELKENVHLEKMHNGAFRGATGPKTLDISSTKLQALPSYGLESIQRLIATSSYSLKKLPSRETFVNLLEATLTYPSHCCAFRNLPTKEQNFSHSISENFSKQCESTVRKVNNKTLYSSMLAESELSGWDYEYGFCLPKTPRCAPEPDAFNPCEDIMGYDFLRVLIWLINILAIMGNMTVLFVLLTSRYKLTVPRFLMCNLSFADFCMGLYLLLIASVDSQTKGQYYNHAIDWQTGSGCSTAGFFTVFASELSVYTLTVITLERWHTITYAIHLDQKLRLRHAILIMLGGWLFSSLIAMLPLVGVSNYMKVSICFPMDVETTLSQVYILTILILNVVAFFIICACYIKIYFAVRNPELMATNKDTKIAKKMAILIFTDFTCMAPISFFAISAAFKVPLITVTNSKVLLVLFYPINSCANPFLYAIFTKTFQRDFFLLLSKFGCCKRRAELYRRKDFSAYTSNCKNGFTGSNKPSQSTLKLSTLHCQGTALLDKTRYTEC
Description: With reference to Table 1, exemplary disclosed compounds were evaluated against human TSH receptor and human LHCG receptor that were stably expressed in HEK 293 EM cells as previously described by Libert et al. (Biochem. Biophys. Res. Commun. 1989, 165, 1250-1255); and by Schulz et al. (Mol. Endocrinol. 1999, 13, 181-190). Cell surface expression of TSH receptor and LHCG receptor were determined via FACS analysis (Kleinau, G.; Jäschke, H.; Neumann, S.; Lättig, S.; Paschke, R.; Krause, G. J. Biol. Chem. 2004, 279, 51590-51600).
Following aspiration of the medium after incubation with compounds, cells were lysed using lysis buffer 1 of the cAMP Biotrak Enzymeimmunoassay (EIA) System (Amersham Biosciences). The cAMP content of the cell lysate was determined using the manufacturer's protocol. […] The potency (EC50) was obtained from dose response curves (0-100 μM compound) by data analysis with GraphPad Prism 4 for Windows. […] The data are presented as mean±SEM of two independent experiments, each performed in duplicate.
as §1

TSHR [2] = target: T1, TSHR; experiment: inhibition of TSH-mediated cAMP response in HEK-EM 293 cells stably expressing TSHR; format: cell-based; parameters: expressed in transfected cells
Description: as §1
The TSH-mediated cAMP response of TSHR was inhibited by a maximum of 70.8±5.5% at 30 μM compound 52. […] Compound 52 has no activity at FSHR.
To exclude the possibility that compound 52 might be acting independently of TSHR by building aggregates with TSH, thereby inhibiting the TSH-induced response, tests were conducted for a possible aggregation between these two ligands. Compound 52 and TSH were preincubated for up to 15 minutes before addition to HEK-EM 293 cells stably expressing TSHR. […] There was no difference in the antagonistic effect whether TSH and compound 52 were preincubated together or not (data not shown) thereby excluding the possibility that its effect was caused by aggregation with TSH.

T1 sequence (P16473 21-764): as the sequence (P16473 21-764) above

Structure (SMILES)	inhibition of TSH receptor activation by antibodies (IgG) from Graves' disease sera (TSHR [1])	partial agonism, % of TSH activity at TSHR (human TSH receptor) [%]	% Max. Resp. @ TSHR in μM (human TSH receptor; % of maximum response of TSHR to TSH (100 mU/ml), * estimated maximum response at 100 μM compound) [%]	agonist activity at TSHR (human TSH receptor; cAMP)	EC50 (human TSH receptor; read-out: EC50 (TSHR) in μm [95% C.I.], cAMP, HEK EM 293 cells, dose response 0-100 μM compound, ** estimated EC50, no plateau) [µM]	in vivo efficacy for LHCG receptor (LHCG receptor)	agonism at M9 (TSHR mutant M9)	% Max. Resp. @ LHCGR in μM (human LHCG receptor; % of maximum response of LHCGR to LH (1000 ng/ml)) [%]	EC50 (human LHCG receptor; read-out: EC50 (LHCGR) in μM [95% C.I.], cAMP, HEK EM 293 cells, dose response 0-100 μM compound) [µM]	inhibition of TSH stimulation of TSH receptor signaling (TSHR [2]) [%]	IC50 (TSHR [2]; with EC50 dose of TSH) [µM]
CC/C=C/c1ccc(-c2nc(SC)nc3sc(C(=O)NC(C)(C)C)c(N)c23)cc1 [N-tert-butyl-5-amino-4-(4-((E)-but-1-enyl)phenyl)-2-(methylthio)thieno[2,3-d]pyrimidine-6-carboxamide]	inhibit										
COc1cccc(-c2nc(SC)nc3sc(C(=O)NC(C)(C)C)c(N)c23)c1 [Compound 3, N-tert-butyl-5-amino-4-(3-methoxyphenyl)-2-(methylthio)thieno[2,3-d]pyrimidine-6-carboxamide, reference compound]		23	23.4 ± 3.6	partial agonist	6.5	demonstrated	full agonist	45.8 ± 5.9	0.3	35	11

From patent publication US20090203716A1, “Pyrimidine low molecular weight ligands for modulating hormone receptors” (The Government of the United States of America as …, priority 2006, published 2009)
